Measurements published in US20230322724A1, “HETEROCYCLIC COMPOUNDS AS CBP/EP300 BROMODOMAIN INHIBITORS” (AURIGENE ONCOLOGY LIMITED, priority 2020, published 2023).

Key:
Assay type in all cases: binding
[1] = target: T1, recombinant CREBBP bromodomain (Homo sapiens, UniProt Q92793); assay: CBP TR-FRET displacement assay; details: for inhibition at 10 µM: compound at 10 μM; for IC50: dose-response, read-out: IC50 (group A, B, C)
T1 construct: recombinant CREBBP bromodomain obtained from BPS Bioscience, USA; purchased BPS Bioscience, USA
T1 sequence (Q92793 1085-1192 limits assumed): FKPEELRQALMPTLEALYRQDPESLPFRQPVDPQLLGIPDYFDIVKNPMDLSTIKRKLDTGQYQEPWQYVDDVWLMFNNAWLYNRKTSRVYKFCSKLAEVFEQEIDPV
How it was run: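 CREBBP bromodomain (50 nM) preincubated 30 min at room temperature with 500 nM biotinylated ligand in HEPES pH 7.5 buffer with TCEP, then 60 min with compound. Eu-anti-His/APC-streptavidin TR-FRET 665/615 nm ratio read; IC50 from sigmoidal dose-response fit.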

[2] = target: T2, recombinant P300 bromodomain (Homo sapiens, UniProt Q09472); assay: P300 TR-FRET displacement assay; details: dose-response, read-out: IC50 (group A, B, C)
T2 construct: recombinant P300 bromodomain obtained from BPS Bioscience, USA; purchased BPS Bioscience, USA
T2 sequence (Q09472 1049-1156 limits assumed): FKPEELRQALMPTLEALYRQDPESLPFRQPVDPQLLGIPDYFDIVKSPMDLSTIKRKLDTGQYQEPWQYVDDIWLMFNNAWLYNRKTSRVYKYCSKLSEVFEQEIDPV
Protocol: The potency of compounds to inhibit P300 enzyme was tested in a TR-FRET displacement assay using recombinant P300 bromodomain obtained from BPS Bioscience, USA. The assay buffer was 50 mM HEPES (pH 7.5), 50 mM NaCl, 0.008% Brij 35, 0.01% BSA, 1 mM TCEP. 50 nM of P300 & 500 nM of Biotinylated ligand was incubated at room temperature for 30 minutes, the reaction was initiated by adding the pre-incubated enzyme ligand mixture to the test compounds. After 60 min incubation, the reaction was stopped by the addition of stop mix containing 1 nM of LANCE Europium-anti-6xHis antibody (Perkin Elmer, USA) and 40 nM of Sure Light Allophycocyanin-Streptavidin (Perkin Elmer, USA). Fluorescence emission of the samples at 665 and 615 nm were measured at an excitation of 340 nm and their ratio was plotted against the compound concentrations to generate dose-response curve.
Selected compounds of the present invention were screened in the above-mentioned assay procedures and IC50 values were determined by fitting the dose-response data to sigmoidal curve fitting equation using Graph pad prism software V7.

[3] = target: T3, recombinant BRD4 FL bromodomain (Homo sapiens, UniProt O60885); assay: BRD4 FL TR-FRET displacement assay; details: BRD4 FL; for IC50: dose-response, read-out: IC50 (group A, B, C); for inhibition at 10 µM: compound at 10 μM, read-out: % Inhibition (10 μM)
T3 construct: fused on or other part: 6xHis tag, inferred from detection with Mab ANTI 6HIS-XL665
How it was run: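 Recombinant BRD4 FL (10 nM) pre-incubated 30 min at room temperature with 300 nM biotinylated acetyl-histone H4 (K5/8/12/16) in 50 mM HEPES pH 7.5, 50 mM NaCl, 500 μM CHAPS, then added to compounds for 30 min. Stopped with Eu-streptavidin/anti-6His-XL665 in KF; 665/615 nm ratio fitted sigmoidally for IC50.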

| SMILES | inhibition at 10 µM [1] | IC50 [1] | IC50 [2] | IC50 [3] | inhibition at 10 µM [3] |
| --- | --- | --- | --- | --- | --- |
| Cc1cc2c(N3CCN(C)c4cc(-c5cnn(C)c5)ccc43)cccc2[nH]c1=O [Example 6] | 100% | > 0.01 µM | > 50 µM | 2.01 to 5 µM |  |
| COc1cc(N2CCN(C)c3cc(-c4cnn(C)c4)c(C#N)cc32)c2cc(C)c(=O)[nH]c2c1 [Example 7] | 90% | < 0.05 µM | > 50 µM |  | 77% |
| Cc1cc2c(N3CCN(C)c4cc(-c5cnn(C)c5)c(C#N)cc43)cccc2n(C)c1=O [Example 42] | 96% | < 0.05 µM | 0.025 to 0.05 µM |  | 81% |
| COc1cc(N2CCN(C)c3cc(C(=O)O)c(C#N)cc32)c2cc(C)c(=O)n(C)c2c1 [Example 68, 7-cyano-1-(7-methoxy-1,3-dimethyl-2-oxo-1,2-dihydroquinolin-5-yl)-4-methyl-1,2,3,4-tetrahydroquinoxaline-6-carboxylic acid] |  | < 0.05 µM | 0.025 to 0.05 µM | 2.01 to 5 µM |  |
| CNC(=O)c1cc2c(cc1C#N)N(c1cc(OC)cc3c1cc(C)c(=O)n3C)CCN2C [Example 69, 7-cyano-1-(7-methoxy-1,3-dimethyl-2-oxo-1,2-dihydroquinolin-5-yl)-N,4-dimethyl-1,2,3,4-tetrahydroquinoxaline-6-carboxamide] |  | < 0.05 µM | < 0.025 µM |  | 39% |
| CN1CCN(c2cccc3c2cc(N)c(=O)n3C)c2cc(C#N)c(-c3cnn(C)c3)cc21 [Example 77, 4-(3-Amino-1-methyl-2-oxo-1,2-dihydroquinolin-5-yl)-1-methyl-7-(1-methyl-1H-pyrazol-4-yl)-1,2,3,4-tetrahydroquinoxaline-6-carbonitrile] |  | > 0.01 µM | > 50 µM | 2.01 to 5 µM |  |
| COc1cc(N2CCN(C)c3cc(F)c(S(N)(=O)=O)cc32)c2cc(C)c(=O)n(C)c2c1 [Example 86] |  | < 0.05 µM | 0.025 to 0.05 µM | 2.01 to 5 µM |  |
| COc1cc(N2CCN(C)c3ccc(S(N)(=O)=O)cc32)c2cc(C)c(=O)n(C)c2c1 [Example 94] |  | < 0.05 µM | < 0.025 µM | 2.01 to 5 µM |  |
| Cc1cc2c(N3CCCc4cc(-c5cnn(C)c5)c(C(F)F)cc43)cncc2n(C)c1=O [Example 180] |  | 0.051 to 0.1 µM | < 0.025 µM | 2.01 to 5 µM |  |
